Measurements as given in patent US20160206606A1, “TOPICAL COMPOSITIONS COMPRISING A THIAZOLIDINEDIONE” (Topokine Therapeutics, Inc., priority 2014, published 2016).
Where a name gives a salt, the structure may show the parent alone. Read-outs that look alike come from different tables or passages of the source.

How the values were obtained:
[1] = Solubility by serial addition of solvent to a known mass of the TZD until full dissolution; assay type: physicochemical
Method: The solubility of rosiglitazone maleate and pioglitazone hydrochloride in various solvents was tested by a standard method, i.e., serial addition of solvent to a known mass of the TZD compound, until full dissolution was observed. Additional solubility results were obtained from the literature. […] This phenomenon occurred in formulations comprising water, as well as formulations lacking water. […] Next, the solubility of troglitazone in various solvents was tested by a standard method, i.e., serial addition of solvent to a known mass of troglitazone, until full dissolution was observed. Additional solubility results were obtained from the literature.

[2] = cited from earlier work; for solubility in ethanol: background statement, temperature not stated
[3] = solvent: 70% ethanol, 27% PG, 3% oleic acid
[4] = solvent: 70% ethanol, 30% propylene glycol (PG)

| SMILES | Solubility at 25° C. ([1]; solvent: 65% ethanol, 25% PG, 7% water, 3% oleic acid) | Solubility at 25° C. [1, 3] | solubility in ethanol [2] | Solubility at 25° C. ([2]; solvent: Ethanol) | Solubility at 25° C. ([2]; solvent: Water) | increase of solubility in the vehicle on addition of oleic acid ([1]; about 3% w/w oleic acid added to ethanol-based vehicle) | increase of solubility in the vehicle on addition of oleic acid ([1]; about 3% w/w oleic acid added to isopropanol-based vehicle) | Solubility at 25° C. ([1]; solvent: 63% ethanol, 24% PG, 10% water, 3% oleic acid) | Solubility at 25° C. [1, 4] | Solubility at 25° C. ([1]; solvent: 70% isopropyl alcohol, 27% PG, 3% oleic acid) | Solubility at 25° C. ([1]; solvent: 70% isopropyl alcohol, 30% PG) |
| --- | --- | --- | --- | --- | --- | --- | --- | --- | --- | --- | --- |
| CCc1ccc(CCOc2ccc(CC3SC(=O)NC3=O)cc2)nc1 (stereo not drawn) [pioglitazone hydrochloride] | ~9 mg/g | ~9 mg/g | ~4000 µg/mL | 4 mg/mL | 0.05 mg/mL |  |  |  |  |  |  |
| CN(CCOc1ccc(CC2SC(=O)NC2=O)cc1)c1ccccn1 (stereo not drawn) [rosiglitazone maleate] |  | ~10 mg/g | about 0.25 mg/mL | 0.25 mg/mL |  | over 75 fold | about 3 fold | ~10 mg/g | 0.13 mg/g | 1.2 mg/g | 0.4 mg/g |
| Cc1c(C)c2c(c(C)c1O)CCC(C)(COc1ccc(CC3SC(=O)NC3=O)cc1)O2 (stereo not drawn) [troglitazone] |  | 0.6 mg/g |  | 0.3 mg/mL^b | 0.02 mg/mL^a |  |  |  | 0.3 mg/g |  |  |
